Values quoted from earlier work in patent US20220323396A1, “COMPOSITIONS AND METHODS FOR TREATING VIRAL INFECTION USING ANTIVIRAL COCKTAILS” (priority 2020, published 2022).

How the values were obtained:
human tryptase = human tryptase (Homo sapiens, UniProt Q15661)
thrombin = thrombin (Homo sapiens, UniProt P00734); settings: values ranging; potent, specific and reversible inhibition

Chain of human tryptase (Q15661 31-275): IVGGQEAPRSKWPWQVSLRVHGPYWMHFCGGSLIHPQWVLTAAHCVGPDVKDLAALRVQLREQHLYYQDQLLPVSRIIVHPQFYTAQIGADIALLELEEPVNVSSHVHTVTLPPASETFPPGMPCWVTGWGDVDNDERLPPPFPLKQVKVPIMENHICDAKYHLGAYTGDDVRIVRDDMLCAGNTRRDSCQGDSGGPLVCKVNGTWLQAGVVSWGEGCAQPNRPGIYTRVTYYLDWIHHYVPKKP

IC50 (human tryptase): 0.016 nM
IC50 (thrombin): 330 to 1900 nM
Structure (SMILES): N=C(N)c1ccc2cc(OC(=O)c3ccc(N=C(N)N)cc3)ccc2c1 [Nafamostat]
